Laboratory results reported in patent US20120009280A1, “METHOD OF REDUCING THE RATE OF DEGRADATION OF A BIOLOGICAL MATERIAL” (Bio-Energy Ingredients Limited, priority 2009, published 2012).

Experiments:
yeast = assay: Yeast count of spent brewer's / wet distiller's grains stored at ambient temperature; assay type: cell-based
total micro-organism = assay: Total microbial (plate) count of spent brewer's / wet distiller's grains stored at ambient temperature; assay type: cell-based; design: total microbial count: unit: cfu/gram; details: for preservation effect period: Example 18; for total microbial count: powder 10% (w/w); for preservation time with total microbial counts <10 cfu/g / preservation time with total microbial counts <100 cfu/g / preservation time with total microbial counts <1000 cfu/g: distiller's grains not de-watered, Examples 16-18
Source text: Samples of spent brewer's grains were drawn from the discharge line of a brewery in South Africa. The samples, packed in dry ice in a cold box, were transported over a distance of approximately 40 kilometres to a laboratory. At the laboratory, the samples were thoroughly mixed and initially split into a first portion (Portion 1) and a second portion (Portion 2). The second portion was about twice the size of the first. Portion 1 was left untreated. Material produced from Portion 1 and Portion 2 is designated below using the code “AR” (as received).
Portion 2 was placed on a clean, standard, laboratory screen deck with 1.4 mm apertures supported from below. As much water as possible was manually squeezed out with a clean flat plastic disc and the sample was then manually remixed after the squeezing. The squeezed material was then split into a third portion (Portion 3) and a fourth portion (Portion 4) of approximately the same size. Material produced from Portion 3 and Portion 4 is designated below using the code “SO” (squeezed).
Portion 4 was added to a high speed kitchen food-shredder and shredded for about two minutes. The shredded material was then returned to the 1.4 mm aperture screen and squeezed again, as described above, and manually remixed again after the second squeezing to produce a shredded and squeezed portion (Portion 5). Material produced from Portion 5 is designated below using the code “SH” (shredded).
Samples of Portion 1 (“AR”), Portion 3 (“SO”) and Portion 5 (“SH”) were then delivered to a microbiological testing facility about 15 kilometres from the treatment laboratory. Each was tested for initial total microbial, yeast and mould counts, respectively.
Separate untreated samples were similarly stored under insect-proof screens at ambient temperature for seven days (as shown in Tables 1 and 2). During the trial period the ambient temperature ranged from 11 to 33 degrees C.
After exposure to the environment for seven days, all of the samples were tested at a South African National Accreditation System (SANAS) approved microbiological testing facility. Each was tested for total micro-organism, yeast and mould counts to determine the affect of the various treatments.
Samples of spent brewer's grains were drawn from the discharge line of a brewery in South Africa.
At the laboratory, the samples were thoroughly mixed and initially split into a first portion (Portion 1) and a second portion (Portion 2). Portion 1 was left untreated. A sample of Portion 1, was delivered immediately to a microbiological testing facility about 15 kilometres away from the treatment laboratory and was tested for initial total microbial, yeast and mould counts, respectively.
Samples from Portion 2 were subjected to treatment with varying amounts of a powdered, commercially-available calcium oxide containing approximately 94% calcium oxide (CaO) as shown in Table 32. The treatments varied from 2.5 to 10% (w/w) calcium oxide addition. The samples were stored in batches (according to the calcium oxide treatment) under insect-proof screens at ambient temperature for fifty six days. […] During the trial period the ambient temperature ranged from 10 to 30 degrees C. As this period was the southern hemisphere spring/early summer, the humidity as well as ambient temperatures varied widely.
Samples from each treatment were drawn every seven days. No further calcium oxide treatment or agitation took place after the initial mix. In each case the entire sample was isolated and delivered to the microbiological testing facility.
(§1) In this trial the same source of wet distiller's grains (again with now partial water removal prior to treatment) was treated.
as §1

[1] = dose 10% w/w, partially de-watered wet distiller's grains, Example 8
[2] = 10% Ca-DGO (w/w) granules, week 1
[3] = 10% Ca-DGO (w/w) granules, week 2
[4] = 10% Ca-DGO (w/w) granules, week 3
[5] = 10% Ca-DGO (w/w) granules, week 4
[6] = 10% Ca-DGO (w/w) granules, week 5
[7] = 10% Ca-DGO (w/w) powder, week 1
[8] = 10% Ca-DGO (w/w) powder, week 2
[9] = 10% Ca-DGO (w/w) powder, week 3
[10] = 10% Ca-DGO (w/w) powder, week 4
[11] = 10% Ca-DGO (w/w) powder, week 5
[12] = 20% Ca-DGO (w/w) powder, week 1
[13] = 20% Ca-DGO (w/w) powder, week 2
[14] = 20% Ca-DGO (w/w) powder, week 3
[15] = 20% Ca-DGO (w/w) powder, week 4
[16] = 20% Ca-DGO (w/w) powder, week 5
[17] = 40% Ca-DGO (w/w) powder, week 1
[18] = 40% Ca-DGO (w/w) powder, week 2
[19] = 40% Ca-DGO (w/w) powder, week 3
[20] = 40% Ca-DGO (w/w) powder, week 4
[21] = 40% Ca-DGO (w/w) powder, week 5

For `[Ca+2].[O-2]` [CaO powder], the “Yeast Count” value (yeast; dose 5% (w/w), week 0) was <10 cfu/gram, the “Yeast Count” value (yeast; dose 5% (w/w), week 1) was <10 cfu/gram and the “Yeast Count” value (yeast; dose 5% (w/w), week 2) was <10 cfu/gram. For the same molecule, the “Yeast Count” value (yeast; dose 5% (w/w), week 3) was <10 cfu/gram, the “Yeast Count” value (yeast; dose 5% (w/w), week 4) was <10 cfu/gram and the “Yeast Count” value (yeast; dose 5% (w/w), week 5) was <10 cfu/gram. For the same molecule, the “Yeast Count” value (yeast; dose 5% (w/w), week 6) was <10 cfu/gram, the “Yeast Count” value (yeast; dose 5% (w/w), week 7) was <10 cfu/gram and the “Yeast Count” value (yeast; dose 5% (w/w), week 8) was <10 cfu/gram. For the same molecule, the “Yeast Count” value (yeast; dose 5% (w/w), week 9) was <10 cfu/gram, the “Yeast Count” value (yeast; dose 10% (w/w), week 0) was <10 cfu/gram and the “Yeast Count” value (yeast; dose 10% (w/w), week 1) was <10 cfu/gram. The “Yeast Count” value (yeast; dose 10% (w/w), week 2) was <10 cfu/gram, the “Yeast Count” value (yeast; dose 10% (w/w), week 7) was <10 cfu/gram and the “Yeast Count” value (yeast; dose 10% (w/w), week 8) was <10 cfu/gram. For the same molecule, the Total plate count (total micro-organism; dose 5% (w/w), week 0) was 640 cfu/gram, the Total plate count (total micro-organism; dose 5% (w/w), week 1) was 1800 cfu/gram and the Total plate count (total micro-organism; dose 5% (w/w), week 2) was 280 cfu/gram. For the same molecule, the Total plate count (total micro-organism; dose 5% (w/w), week 3) was 210 cfu/gram, the Total plate count (total micro-organism; dose 5% (w/w), week 4) was <10 cfu/gram and the Total plate count (total micro-organism; dose 5% (w/w), week 6) was 40 cfu/gram. It also gave a Total plate count (total micro-organism; dose 5% (w/w), week 7) of 900 cfu/gram, a Total plate count (total micro-organism; dose 5% (w/w), week 8) of 120 cfu/gram and a Total plate count (total micro-organism; dose 5% (w/w), week 9) of 20 cfu/gram. It also gave a Total plate count (total micro-organism; dose 10% (w/w), week 0) of 100 cfu/gram, a Total plate count (total micro-organism; dose 10% (w/w), week 1) of 310 cfu/gram and a Total plate count (total micro-organism; dose 10% (w/w), week 2) of 150 cfu/gram. The Total plate count (total micro-organism; dose 10% (w/w), week 3) was 40 cfu/gram, the Total plate count (total micro-organism; dose 10% (w/w), week 4) was 20 cfu/gram and the Total plate count (total micro-organism; dose 10% (w/w), week 6) was <10 cfu/gram. For the same molecule, the Total plate count (total micro-organism; dose 10% (w/w), week 7) was 300 cfu/gram, the Total plate count (total micro-organism; dose 10% (w/w), week 8) was 80 cfu/gram and the Total plate count (total micro-organism; dose 10% (w/w), week 9) was <10 cfu/gram. For the same molecule, the “minimum preservation time with total microbial counts <60 cfu/g” value (total micro-organism; [1]) was 2 weeks and the “minimum preservation time with total microbial counts <1000 cfu/g” value (total micro-organism; [1]) was “≧1 year”.
In the case of `[Ca+2].[O-]CC(O)CO.[O-]CC(O)CO` [calcium diglyceroxide], the “Yeast Count” value (yeast; [2]) is reported as 480 cfu/gram, the “Yeast Count” value (yeast; [3]) is reported as <10 cfu/gram and the “Yeast Count” value (yeast; [4]) is reported as <10 cfu/gram. For the same molecule, the “Yeast Count” value (yeast; [5]) was <19 cfu/gram, the “Yeast Count” value (yeast; [6]) was <10 cfu/gram and the “Yeast Count” value (yeast; [7]) was <10 cfu/gram. For the same molecule, the “Yeast Count” value (yeast; [8]) was <10 cfu/gram, the “Yeast Count” value (yeast; [9]) was <10 cfu/gram and the “Yeast Count” value (yeast; [10]) was <10 cfu/gram. For the same molecule, the “Yeast Count” value (yeast; [11]) was <10 cfu/gram, the “Yeast Count” value (yeast; [12]) was 10 cfu/gram and the “Yeast Count” value (yeast; [13]) was 10 cfu/gram. The “Yeast Count” value (yeast; [14]) was 10 cfu/gram, the “Yeast Count” value (yeast; [15]) was 10 cfu/gram and the “Yeast Count” value (yeast; [16]) was 10 cfu/gram. The “Yeast Count” value (yeast; [17]) was 10 cfu/gram, the “Yeast Count” value (yeast; [18]) was 10 cfu/gram and the “Yeast Count” value (yeast; [19]) was 20 cfu/gram. The “Yeast Count” value (yeast; [20]) was 10 cfu/gram, the “Yeast Count” value (yeast; [21]) was 10 cfu/gram and the Total plate count (total micro-organism; [2]) was 11000 cfu/gram. The Total plate count (total micro-organism; [3]) was <10 cfu/gram, the Total plate count (total micro-organism; [4]) was 540 cfu/gram and the Total plate count (total micro-organism; [5]) was 60 cfu/gram. The Total plate count (total micro-organism; [6]) was 650 cfu/gram, the Total plate count (total micro-organism; [7]) was 610 cfu/gram and the Total plate count (total micro-organism; [8]) was <10 cfu/gram. The Total plate count (total micro-organism; [9]) was 580 cfu/gram, the Total plate count (total micro-organism; [10]) was 5000 cfu/gram and the Total plate count (total micro-organism; [11]) was 36000 cfu/gram. The Total plate count (total micro-organism; [12]) was 80 cfu/gram, the Total plate count (total micro-organism; [13]) was 310 cfu/gram and the Total plate count (total micro-organism; [14]) was 140 cfu/gram. It also gave a Total plate count (total micro-organism; [15]) of 40 cfu/gram, a Total plate count (total micro-organism; [16]) of 10 cfu/gram and a Total plate count (total micro-organism; [17]) of 40 cfu/gram. The Total plate count (total micro-organism; [18]) was 450 cfu/gram, the Total plate count (total micro-organism; [19]) was 103 cfu/gram and the Total plate count (total micro-organism; [20]) was 10 cfu/gram. It also gave a Total plate count (total micro-organism; [21]) of 10 cfu/gram, a preservation effect period (total micro-organism; granule form 15% (w/w)) of 9 week and a total microbial count (total micro-organism; 3 week time point) of 580. The total microbial count (total micro-organism; week 4) was 5,000, the total microbial count (total micro-organism; week 5) was 36,000 and the preservation effect period (total micro-organism; powder form 15% (w/w)) was 9 week.
With `[Ca+2].[OH-].[OH-]` [calcium hydroxide] the “preservation time with total microbial counts <10 cfu/g” value (total micro-organism; dose 3.3% w/w) was “≧6 weeks”, the “preservation time with total microbial counts <100 cfu/g” value (total micro-organism; dose 3.3% w/w) was “≧6 weeks” and the “preservation time with total microbial counts <1000 cfu/g” value (total micro-organism; dose 3.3% w/w) was “≧6 weeks”. For the same molecule, the “preservation time with total microbial counts <10 cfu/g” value (total micro-organism; dose 6.6% w/w) was “≧6 weeks”, the “preservation time with total microbial counts <100 cfu/g” value (total micro-organism; dose 6.6% w/w) was “≧6 weeks” and the “preservation time with total microbial counts <1000 cfu/g” value (total micro-organism; dose 6.6% w/w) was “≧6 weeks”.
